Reference: patent US20140171419A1, “ENHANCEMENT OF CELLULAR TRANSPLANTATION USING SMALL MOLECULE MODULATORS HEPATOCYTE GROWTH FACTOR (SCATTER FACTOR) ACTIVITY” (ANGION BIOMEDICA CORP, priority 2009, published 2014)

Test system: primary human hepatocytes
Experiment: BrdU cell proliferation assay in cryopreserved primary human hepatocytes
Format: cell-based
Conditions: 50 ng/ml, overnight treatment, 4 hour BrdU incubation; control 0.032±0.011
Method: Cryopreserved primary human hepatocytes (CellzDirect catalog #[…], Lot # Hu0948) were plated on a collagen-coated 96 well plate according to the supplier's instructions and allowed to adhere and stabilize for 48 hours. Cells were treated with a compound of formula (II) embodied herein (10 μM final concentration) or HGF (50 ng/ml) overnight, and the next day, cell proliferation was determined using a BrdU assay (Chemicon, catalog #2750) according to the manufacturer's instructions, with a 4 hour incubation period of BrdU. Plates were read at 450 and 550 (background) nm and the difference was taken as an indicator of cell proliferation. Both test compound and HGF stimulated the BrdU incorporation in hepatocytes vs. control: test compound, 0.336±0.072; HGF, 0.388±0.134; and control, 0.032±0.011. Hepatocytes enhanced using the compounds of the invention can be used subsequently for cellular transplant into a human recipient, providing enhanced cell survival and numbers to increase the quality of the cells used in the transplant, the survival of cells after transplant and reduce the number of cells required to achieve the desired outcome of the transplant procedure and restoring or enhancing hepatic function in the recipient.

Which “BrdU incorporation (difference of plate readings at 450 and 550 (background) nm, indicator of cell proliferation)” value does the source give for “HGF: hepatocyte growth factor (scatter factor), a pleiotropic growth factor, used as positive comparator” here?
The value was 0.388±0.134.
